According to US20240358735A1, “THERAPEUTIC COMPOSITIONS AND RELATED METHODS” (BOYCE THOMPSON INSTITUTE FOR PLANT RESEARCH, INC., priority 2021, published 2024):

How the values were obtained:
[1] = tested on: proteasome alpha and beta subunits; test: Limited proteolysis-coupled mass spectrometry (LiP-MS) of C. elegans lysates; type: binding; details: FIG. 35; C. elegans lysate, compound 0.1 mM, proteinase K
Text: (§1) To investigate the cellular interactors of MOGLs, two independent approaches were applied: thermal proteome profiling (TPP) and limited proteolysis-coupled mass spectrometry (LiP-MS), to uncover binding events upon compound treatment of C. elegans lysates using MOGLs of the sngl-class as an example. […] Moreover, there were multiple peptides from proteasome alpha subunits and one peptide from the beta unit that were differential, with absence-present contrast, in the LiP-MS experiment (FIG. 35). Results from these two assays which reflect distinct biophysical properties of protein-small molecule binding, strongly support interaction between sngl #1 and sngl #2 with the proteasome.
To obtain mechanistic insight into the binding of proteasome with sngl #1/sngl #2, LiP-MS data were analyzed to reveal peptides around sub-structures of proteins where the binding occurs.
C. elegans lysate preparation and compound incubation. Synchronized pah-1(syb3596); tph-1(mg280) double knockout C. elegans were grown with ΔtnaA E. coli (JW3686-7) for two generations; growth conditions and harvesting procedures were as described in the ‘Nematode cultures’ section above. […] Protein concentration was determined by Bradford assay (MilliporeSigma) and diluted to 1 mg/mL by lysis buffer. […]

[2] = tested on: proteasome alpha and beta subunits; test: Thermal proteome profiling (TPP) of C. elegans lysates; type: binding; details: compound 0.1 mM; for thermal stability of majority detected proteasome alpha and beta subunits (TPP): C. elegans lysate 1 mg/mL, 15 min room temperature, heated; for thermal stability of proteasome subunit PBS-1 (TPP): FIG. 36, C. elegans lysate
Text: as §1
C. elegans lysate preparation and compound incubation. Synchronized pah-1(syb3596); tph-1(mg280) double knockout C. elegans were grown with ΔtnaA E. coli (JW3686-7) for two generations; growth conditions and harvesting procedures were as described in the ‘Nematode cultures’ section above. Worms were lysed by sonication with lysis buffer (25 mM Tris pH 7.5, 150 mM NaCl, 1.5 mM MgCl2.1 mM phenylmethylsulfonyl fluoride, 1× protease inhibitor cocktail (Roche), 1 mM sodium fluoride) for 5 min (3 s on/off pulse cycle at Amp 100). Protein concentration was determined by Bradford assay (MilliporeSigma) and diluted to 1 mg/mL by lysis buffer. To each aliquot of lysate was added compound (sngl #1, sngl #2, N-acetylserotonin, and solvent (ethanol) control (Mock)) to a final concentration of 0.1 mM and the mixtures were shaken for 15 min at room temperature.
Thermal proteome profiling (TPP) sample preparation. Methods were modified from published protocol (Franken, H., T. et al. Nature Protocols 10(10): 1567-1593). Lysate-compound mixture were aliquoted into 0.2-mL PCR tubes, heated at specified temperatures for 3 min using a Thermal Cycler (BioRad), centrifuged at 16,000 g at 4° C. for 5 min, and the supernatant were transferred into Eppendorf tubes. Four volumes of prechilled (−20° C.) acetone were added to each sample for precipitation of proteins overnight. Samples were centrifuged at 16,000 g at 4° C. for 20 min, washed once by methanol, and the resulting protein pellets were dissolved in urea buffer (50 mM ammonium bicarbonate, 2 M thiourea, 6 M urea). To digest proteins for mass spectrometry analysis, proteins were first reduced by dithiothreitol (final concentration 5 mM) for 30 min at room temperature, alkylated by iodoacetamide (final concentration 15 mM) for 30 min at room temperature in the dark, digested by LysC/Trypsin Mix (Promega) (enzyme/substrate=1/30, w/w) based on manufacturer's instructions. […] Peptides were measured by nanoHPLC-MS/MS by standard methods.

CC(=O)NCCc1c[nH]c2ccc(O[C@@H]3O[C@H](CO)[C@@H](O)[C@H](O)[C@H]3O)cc12 [sngl #1, N-(2-(5-(((2S,3R,4S,5S,6R)-3,4,5-trihydroxy-6-(hydroxymethyl)tetrahydro-2H-pyran-2-yl)oxy)-1H-indol-3-yl)ethyl)acetamide]
PAS- or PBS-derived peptides detected in LiP-MS [1]: indicative of specific binding to PAS and PBS | thermal stability of majority detected proteasome alpha and beta subunits (TPP) [2]: significantly change the thermal stability | thermal stability of proteasome subunit PBS-1 (TPP) [2]: affect the thermal stability

CC(=O)NCCc1c[nH]c2ccc(O[C@@H]3O[C@H](CO)[C@@H](O)[C@H](OP(=O)(O)O)[C@H]3O)cc12 [sngl #2, (2S,3R,4S,5R,6R)-2-((3-(2-acetamidoethyl)-1H-indol-5-yl)oxy)-3,5-dihydroxy-6-(hydroxymethyl)tetrahydro-2H-pyran-4-yl dihydrogen phosphate]
PAS- or PBS-derived peptides detected in LiP-MS [1]: indicative of specific binding to PAS and PBS | thermal stability of majority detected proteasome alpha and beta subunits (TPP) [2]: significantly change the thermal stability | thermal stability of proteasome subunit PBS-1 (TPP) [2]: affect the thermal stability
